Several values for one entry are separate records, joined by “and”; a condition that tells them apart may be missing. Equal values may be shown once.
Test system: Swiss mice, Sarcoma 180 sc, mean tumor weight T/C
Assay: NCI In Vivo Anticancer Drug Screen. Data for tumor model Sarcoma 180 (subcutaneous) in Swiss mice
Conditions: endpoint: mean tumor weight, higher = larger tumour
Method in brief: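 Transplantable tumors were established in mice, compound was given, then survival or tumor size was recorded. The treated value was divided by the vehicle-control value.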

[1] = dose: 1.5 mg/kg/injection, schedule: Q#A X014 (ip), vehicle: saline
[2] = dose: 3.0 mg/kg/injection, schedule: Q#A X014 (ip), vehicle: saline
[3] = dose: 1.0 mg/kg/injection, schedule: Q#A X014 (ip), vehicle: saline
[4] = dose: 25.0 mg/kg/injection, schedule: Q01DX007 (ip), vehicle: saline
[5] = dose: 100.0 mg/kg/injection, schedule: Q01DX007 (ip), vehicle: saline
[6] = dose: 200.0 mg/kg/injection, schedule: Q01DX007 (ip), vehicle: saline

## CC(=O)OCC(=O)[C@@]1(O)CC[C@H]2[C@@H]3C[C@H](C)C4=CC(=O)C=C[C@]4(C)[C@H]3[C@@H](O)C[C@@]21C
dose: 7.5 mg/kg/injection, schedule: Q01DX007 (sc), vehicle: steriod suspending solution
  T/C: 122 % of control
dose: 10.0 mg/kg/injection, schedule: Q01DX007 (sc), vehicle: steriod suspending solution
  T/C: 59 % of control
dose: 11.3 mg/kg/injection, schedule: Q01DX007 (sc), vehicle: steriod suspending solution
  T/C: 93 % of control
dose: 20.0 mg/kg/injection, schedule: Q01DX007 (sc), vehicle: steriod suspending solution
  T/C: 55 % of control
dose: 27.0 mg/kg/injection, schedule: Q01DX007 (sc), vehicle: steriod suspending solution
  T/C: 41 % of control
dose: 40.0 mg/kg/injection, schedule: Q01DX007 (sc), vehicle: steriod suspending solution
  T/C: 34 % of control
dose: 44.4 mg/kg/injection, schedule: Q01DX007 (sc), vehicle: steriod suspending solution
  T/C: 26 % of control
dose: 66.6 mg/kg/injection, schedule: Q01DX007 (sc), vehicle: steriod suspending solution
  T/C: 39 % of control
dose: 100.0 mg/kg/injection, schedule: Q01DX007 (sc), vehicle: steriod suspending solution
  T/C: 40 % of control

## NCC(=O)O.[Zn+2]
dose: 1.25 mg/kg/injection, schedule: Q01DX007 (iv), vehicle: water
  T/C: 99 % of control
dose: 2.5 mg/kg/injection, schedule: Q01DX007 (iv), vehicle: water
  T/C: 83 % of control
dose: 5.0 mg/kg/injection, schedule: Q01DX007 (iv), vehicle: water
  T/C: 113 % of control
dose: 10.0 mg/kg/injection, schedule: Q01DX007 (iv), vehicle: water
  T/C: 95 % of control

## CCCOC(=O)C1(N)CCCC1
dose: 148.0 mg/kg/injection, schedule: Q01DX007 (ip), vehicle: saline
  T/C: 42 % of control
dose: 225.0 mg/kg/injection, schedule: Q01DX007 (ip), vehicle: saline
  T/C: 28 % of control

## CCOC(=O)CCCc1ccc(N/N=N/c2nc[nH]c2C(N)=O)cc1
dose: 46.0 mg/kg/injection, schedule: Q01DX007 (ip), vehicle: carboxymethylcellulose (CMC)
  T/C: 79 % of control and 80 % of control
dose: 187.0 mg/kg/injection, schedule: Q01DX007 (ip), vehicle: carboxymethylcellulose (CMC)
  T/C: 46 % of control
dose: 250.0 mg/kg/injection, schedule: Q01DX007 (ip), vehicle: carboxymethylcellulose (CMC)
  T/C: 39 % of control

## O=C(NP(=O)(N1CC1)N1CC1)OCc1ccccc1
[1]
  T/C: 82 % of control
[2]
  T/C: 81 % of control
dose: 6.0 mg/kg/injection, schedule: Q#A X014 (ip), vehicle: saline
  T/C: 36 % of control
dose: 12.0 mg/kg/injection, schedule: Q#A X014 (ip), vehicle: saline
  T/C: 1 % of control

## CCN(CC)P(=O)(N1CC1)N1CC1
dose: 1.0 mg/kg/injection, schedule: Q#A X014 (ip), vehicle: methylcellulose (MC)
  T/C: 64 % of control
[3]
  T/C: 90 % of control and 92 % of control
dose: 1.5 mg/kg/injection, schedule: Q#A X014 (ip), vehicle: methylcellulose (MC)
  T/C: 60 % of control
dose: 2.0 mg/kg/injection, schedule: Q#A X014 (ip), vehicle: methylcellulose (MC)
  T/C: 82 % of control
[2]
  T/C: 19 % of control and 38 % of control
dose: 4.0 mg/kg/injection, schedule: Q01DX007 (ip), vehicle: saline
  T/C: 48 % of control

## Nc1nc(=S)c2[nH]cnc2[nH]1
dose: 0.06 mg/kg/injection, schedule: Q#A X014 (ip), vehicle: carboxymethylcellulose (CMC)
  T/C: 72 % of control
dose: 0.12 mg/kg/injection, schedule: Q01DX007 (ip), vehicle: carboxymethylcellulose (CMC)
  T/C: 78 % of control
dose: 0.25 mg/kg/injection, schedule: Q01DX007 (ip), vehicle: carboxymethylcellulose (CMC)
  T/C: 82 % of control
dose: 0.25 mg/kg/injection, schedule: Q#A X014 (ip), vehicle: carboxymethylcellulose (CMC)
  T/C: 89 % of control
dose: 0.5 mg/kg/injection, schedule: Q01DX007 (ip), vehicle: carboxymethylcellulose (CMC)
  T/C: 97 % of control
dose: 0.6 mg/kg/injection, schedule: Q01DX007 (ip), vehicle: carboxymethylcellulose (CMC)
  T/C: 49 % of control
dose: 0.75 mg/kg/injection, schedule: Q01DX007 (ip), vehicle: carboxymethylcellulose (CMC)
  T/C: 78 % of control
dose: 1.0 mg/kg/injection, schedule: Q01DX007 (ip), vehicle: carboxymethylcellulose (CMC)
  T/C: 22 % of control and 37 % of control
dose: 1.0 mg/kg/injection, schedule: Q#A X014 (ip), vehicle: carboxymethylcellulose (CMC)
  T/C: 46 % of control
dose: 1.5 mg/kg/injection, schedule: Q01DX007 (ip), vehicle: carboxymethylcellulose (CMC)
  T/C: 33 % of control
dose: 2.0 mg/kg/injection, schedule: Q01DX007 (ip), vehicle: carboxymethylcellulose (CMC)
  T/C: 37 % of control and 50 % of control
dose: 3.0 mg/kg/injection, schedule: Q01DX007 (ip), vehicle: carboxymethylcellulose (CMC)
  T/C: 25 % of control
dose: 4.0 mg/kg/injection, schedule: Q#A X014 (ip), vehicle: carboxymethylcellulose (CMC)
  T/C: 23 % of control
dose: 6.7 mg/kg/injection, schedule: Q01DX007 (ip), vehicle: carboxymethylcellulose (CMC)
  T/C: 10 % of control and 15 % of control
dose: 10.0 mg/kg/injection, schedule: Q01DX007 (ip), vehicle: carboxymethylcellulose (CMC)
  T/C: 3 % of control
dose: 187.5 mg/kg/injection, schedule: Q#A X014 (ip), vehicle: carboxymethylcellulose (CMC)
  T/C: 58 % of control
dose: 375.0 mg/kg/injection, schedule: Q#A X014 (ip), vehicle: carboxymethylcellulose (CMC)
  T/C: 51 % of control
dose: 750.0 mg/kg/injection, schedule: Q#A X014 (ip), vehicle: carboxymethylcellulose (CMC)
  T/C: 35 % of control
dose: 1500.0 mg/kg/injection, schedule: Q#A X014 (ip), vehicle: carboxymethylcellulose (CMC)
  T/C: 16 % of control

## O=P(N1CCCC1)(N1CC1)N1CC1
[3]
  T/C: 50 % of control and 54 % of control
dose: 1.3 mg/kg/injection, schedule: Q#A X014 (ip), vehicle: carboxymethylcellulose (CMC)
  T/C: 76 % of control
[1]
  T/C: 10 % of control and 22 % of control
dose: 2.0 mg/kg/injection, schedule: Q#A X014 (ip), vehicle: carboxymethylcellulose (CMC)
  T/C: 66 % of control
dose: 2.0 mg/kg/injection, schedule: Q#A X014 (ip), vehicle: saline
  T/C: 15 % of control
dose: 3.0 mg/kg/injection, schedule: Q#A X014 (ip), vehicle: carboxymethylcellulose (CMC)
  T/C: 46 % of control
dose: 8.0 mg/kg/injection, schedule: Q01DX007 (ip), vehicle: carboxymethylcellulose (CMC)
  T/C: 23 % of control
dose: 12.0 mg/kg/injection, schedule: Q01DX007 (ip), vehicle: carboxymethylcellulose (CMC)
  T/C: 11 % of control

## Cc1nc(C(N)=O)nc2ccccc12
dose: 62.5 mg/kg/injection, schedule: Q#A X014 (ip), vehicle: methylcellulose (MC)
  T/C: 64 % of control and 81 % of control
dose: 200.0 mg/kg/injection, schedule: Q01DX007 (ip), vehicle: carboxymethylcellulose (CMC)
  T/C: 64 % of control and 65 % of control
dose: 250.0 mg/kg/injection, schedule: Q#A X014 (ip), vehicle: methylcellulose (MC)
  T/C: 36 % of control

## Oc1cc(O)c2c(c1)O[C@H](c1ccc(O)c(O)c1)[C@@H](O)C2
dose: 6.25 mg/kg/injection, schedule: Q01DX007 (ip), vehicle: saline
  T/C: 84 % of control
dose: 12.5 mg/kg/injection, schedule: Q01DX007 (ip), vehicle: saline
  T/C: 99 % of control
[4]
  T/C: 88 % of control
[5]
  T/C: 83 % of control
[6]
  T/C: 87 % of control
dose: 400.0 mg/kg/injection, schedule: Q01DX007 (ip), vehicle: saline
  T/C: 80 % of control

## C[C@]12CC[C@H](O)CC1=CC[C@@H]1[C@@H]2[C@@H](O)C[C@@]2(C)[C@H]1CC[C@]2(C)O
dose: 25.0 mg/kg/injection, schedule: Q#A X014 (sc), vehicle: steriod suspending solution
  T/C: 87 % of control
dose: 100.0 mg/kg/injection, schedule: Q#A X014 (sc), vehicle: steriod suspending solution
  T/C: 113 % of control
dose: 200.0 mg/kg/injection, schedule: Q#A X014 (sc), vehicle: steriod suspending solution
  T/C: 76 % of control

## Cc1cc(N(CCCl)CCCl)ccc1C=Nc1ccccc1-c1ccccc1
[4]
  T/C: 100 % of control
dose: 50.0 mg/kg/injection, schedule: Q01DX007 (ip), vehicle: saline
  T/C: 96 % of control
[5]
  T/C: 105 % of control
[6]
  T/C: 73 % of control

## C[C@H]1C[C@@H]2[C@H](C(=O)C[C@@]3(C)[C@H]2CC[C@]3(O)C(=O)CO)[C@@]2(C)C=CC(=O)C=C12
dose: 221.0 mg/kg/injection, schedule: Q01DX007 (sc), vehicle: steriod suspending solution
  T/C: 41 % of control
dose: 330.0 mg/kg/injection, schedule: Q01DX007 (sc), vehicle: steriod suspending solution
  T/C: 43 % of control and 65 % of control
dose: 739.0 mg/kg/injection, schedule: Q01DX007 (sc), vehicle: steriod suspending solution
  T/C: 13 % of control

## CCCCCCCCCCOP(N)(=O)OCCCCCCCCCC
dose: 27.75 mg/kg/injection, schedule: Q#A X014 (ip), vehicle: carboxymethylcellulose (CMC)
  T/C: 56 % of control and 64 % of control
dose: 41.5 mg/kg/injection, schedule: Q#A X014 (ip), vehicle: carboxymethylcellulose (CMC)
  T/C: 60 % of control and 63 % of control

## CC(CNC(=O)CCBr)NC(=O)CCBr (centres undefined)
dose: 110.0 mg/kg/injection, schedule: Q01DX007 (ip), vehicle: carboxymethylcellulose (CMC)
  T/C: 48 % of control and 64 % of control
dose: 167.8 mg/kg/injection, schedule: Q01DX007 (ip), vehicle: carboxymethylcellulose (CMC)
  T/C: 48 % of control
dose: 168.0 mg/kg/injection, schedule: Q01DX007 (ip), vehicle: carboxymethylcellulose (CMC)
  T/C: 34 % of control
